Key:
lectin PPA = assay: Hemagglutination-inhibition assay of the lectin PPA with monosaccharide, disaccharide and glycoprotein; type: binding, Philyra pisum; details: for Erythrocyte agglutination inhibition concentration: 6.25% mouse erythrocyte, lectin PPA diluted 128-fold; for inhibition of agglutination (in words): summary of Table 2
Method: In order to confirm that the lectin PPA of the present invention recognizes N-glycolylneuraminic acid, hemagglutination-inhibition reaction was performed using monosaccharide, disaccharide and glycoprotein. 50 Microliters of a 128-fold diluted solution of lectin PPA in 0.15 molar NaCl and 50 microliters of each of 1 milligram per milliliter solutions of monosaccharides (e.g., β-D-glucose, D-galactose, L-fucose, D-mannose, N-acetylneuraminic acid, N-glycolylneuraminic acid, N-acetyl-D-glucosamine, N-acetyl-D-galactosamine and methyl-α-D-glucopoyranoside), disaccharide (e.g., α-lactose, β-lactose, D-lactose, βgentiobiose, maltose, D-raffinose or D-cellobiose) and glycoprotein (e.g., bovine submaxillary mucin, thyroglobulin, fetuin and asialofetuin) in 0. 15 molar NaCl were added to the each well of a 96-well microplate. After the reaction for one hour or more at room temperature, 50 microliters of the erythrocyte suspended in 0.15 molar NaCl was added to each well and reacted for one hour at room temperature.
The negative sign (−) means that there is no hemagglutination-inhibition for 100 millimolar monosaccharide/disaccharide and 100 micromolar glucoprotein. NeuGc and NeuAc represent N-glycolylneuraminic acid and N-acetylneuraminic acid, respectively.

[1] = system: peroxidase-labeled lectin PPA; assay: ELISA with peroxidase-labeled lectin PPA on coated glycoproteins; type: binding, Philyra pisum; details: 1 milligram per milliliter glycoprotein solution diluted 10^3 to 10^8-fold, FIG. 3
Method: In order to more accurately verify the hemagglutination-inhibition reaction of the lectin PPA, ELISA was conducted. Specifically, the lectin PPA bound to a horse radish peroxidase (HRP) was used in examining the reactivity and sensitivity against glucoproteins by ELISA. First, 5.03 milligrams of HRP were dissolved in 0.2 milliliter of a 1.25% glutaraldehyde (EM grade)-100 millimolar sodium phosphate buffer (pH 6.8) and allowed to stand for 18 hours at room temperature. Then, 20 microliters of glycerol and 20 microliters of xylene cyanol were added thereto and this was used in performing gel filtration with a SEPHADEX (TM) G-75 column equilibrated with a 100 millimolar phosphate buffer and 0.15 molar NaCl (pH 7.2). After applying the glutaraldehyde-treated HRP onto the column and eluting with 0.15 molar NaCl, about 1 milliliter of the brownish fraction containing HRP solution was collected. This fraction was dialyzed with a 100 millimolar sodium carbonate-sodium bicarbonate buffer solution (pH 9.5) containing sucrose and followed by the same buffer without sucrose. To 300 microliters of HRP thus obtained were added 150 microliters of lectin PPA (concentration of about 0.4 milligram per milliliter concentration) containing with 0.15 molar NaCl. After confirming the pH value 9.0 or more, the resultant solution was incubated for 24 hours at 4° C. to prepare peroxidase-labeled lectin PPA. In the mean time, 1 milligram of each of fetuin, asialofetuin and bovine submaxillary mucin was dissolved in 1 milliliter of PBS and serial 10-fold dilutions were made. […] Then, the absorbance at 415 nanometers of each well was measured with a microplate reader. To eliminate the error of each well caused by the time difference while adding ABTS, a second measurement was performed after 10 minutes to determine the difference in the absorbances between the time of 10 minutes and 0 minute. […] The absorbance was decreased with the lowering of the concentration.

[2] = monosaccharide/disaccharide tested from 100 mM
[3] = glycoprotein tested from 100 micromolar
[4] = glycoprotein, minimum concentration

| Compound | Erythrocyte agglutination inhibition concentration (lectin PPA; [2]) | other results |
| --- | --- | --- |
| OC[C@H]1O[C@@H](O[C@H]2[C@H](O)[C@@H](O)[C@H](O)O[C@@H]2CO)[C@H](O)[C@@H](O)[C@H]1O [β-lactose] | — (The negative sign (−) means that there is no hemagglutination-inhibition for 100 millimolar monosaccharide/disaccharide) | – |
| O=C[C@@H](O)[C@@H](O)[C@H](O)[C@H](O)CO [D-mannose] | — (The negative sign (−) means that there is no hemagglutination-inhibition for 100 millimolar monosaccharide/disaccharide) | – |
| OC[C@H]1O[C@@H](O)[C@H](O)[C@@H](O)[C@@H]1O [beta.-D-glucose] | — (The negative sign (−) means that there is no hemagglutination-inhibition for 100 millimolar monosaccharide/disaccharide) | – |
| Fetuin: glycoprotein with NeuAc, does not contain N-glycolylneuraminic acid | – | ELISA response (absorbance at 415 nanometers) [1]: no response occurred; Erythrocyte agglutination inhibition concentration (lectin PPA; [3]): — (The negative sign (−) means that there is no hemagglutination-inhibition for 100 millimolar monosaccharide/disaccharide and 100 micromolar glucoprotein) |
| OC[C@H]1O[C@@H](O[C@H]2[C@H](O)[C@@H](O)C(O)O[C@@H]2CO)[C@H](O)[C@@H](O)[C@H]1O (stereo partly drawn) [D-lactose] | — (The negative sign (−) means that there is no hemagglutination-inhibition for 100 millimolar monosaccharide/disaccharide) | – |
| OC[C@H]1O[C@@H](OC[C@H]2O[C@@H](O)[C@H](O)[C@@H](O)[C@@H]2O)[C@H](O)[C@@H](O)[C@@H]1O [β-gentiobiose] | — (The negative sign (−) means that there is no hemagglutination-inhibition for 100 millimolar monosaccharide/disaccharide) | – |
| CC(=O)N[C@H]1C(O)O[C@H](CO)[C@@H](O)[C@@H]1O (stereo partly drawn) [N-acetyl-D-glucosamine] | — (The negative sign (−) means that there is no hemagglutination-inhibition for 100 millimolar monosaccharide/disaccharide) | – |
| Asialofetuin: glycoprotein without sialic acid, does not contain N-glycolylneuraminic acid | – | ELISA response (absorbance at 415 nanometers) [1]: no response occurred; Erythrocyte agglutination inhibition concentration (lectin PPA; [3]): — (The negative sign (−) means that there is no hemagglutination-inhibition for 100 millimolar monosaccharide/disaccharide and 100 micromolar glucoprotein) |
| CC(=O)N[C@H]1C(O)O[C@H](CO)[C@H](O)[C@@H]1O (stereo partly drawn) [N-acetyl-D-galactosamine] | — (The negative sign (−) means that there is no hemagglutination-inhibition for 100 millimolar monosaccharide/disaccharide) | – |
| O=C(CO)N[C@H]1[C@H]([C@H](O)[C@H](O)CO)OC(O)(C(=O)O)C[C@@H]1O (some centres unmarked) [N-glycolylneuraminic acid] | – | Erythrocyte agglutination inhibition concentration (lectin PPA; monosaccharide/disaccharide, minimum concentration): 190 µM; inhibition of agglutination (in words) (lectin PPA): inhibited the agglutination |
| C[C@H](O)[C@@H](O)[C@@H](O)[C@H](O)C=O [L-fucose] | — (The negative sign (−) means that there is no hemagglutination-inhibition for 100 millimolar monosaccharide/disaccharide) | – |
| OC[C@H]1O[C@@H](O[C@H]2[C@H](O)[C@@H](O)[C@H](O)O[C@@H]2CO)[C@H](O)[C@@H](O)[C@@H]1O [D-cellobiose] | — (The negative sign (−) means that there is no hemagglutination-inhibition for 100 millimolar monosaccharide/disaccharide) | – |
| CO[C@H]1O[C@H](CO)[C@@H](O)[C@H](O)[C@H]1O [Methyl-α-D-glucopyranoside] | — (The negative sign (−) means that there is no hemagglutination-inhibition for 100 millimolar monosaccharide/disaccharide) | – |
| OC[C@H]1O[C@H](OC[C@H]2O[C@H](O[C@]3(CO)O[C@H](CO)[C@@H](O)[C@@H]3O)[C@H](O)[C@@H](O)[C@@H]2O)[C@H](O)[C@@H](O)[C@H]1O [D-raffinose] | — (The negative sign (−) means that there is no hemagglutination-inhibition for 100 millimolar monosaccharide/disaccharide) | – |
| OC[C@H]1O[C@H](O[C@H]2[C@H](O)[C@@H](O)[C@H](O)O[C@@H]2CO)[C@H](O)[C@@H](O)[C@@H]1O [Maltose] | — (The negative sign (−) means that there is no hemagglutination-inhibition for 100 millimolar monosaccharide/disaccharide) | – |
| Thyroglobulin: glycoprotein containing N-glycolylneuraminic acid | – | Erythrocyte agglutination inhibition concentration (lectin PPA; [4]): 0.4 µM; inhibition of agglutination (in words) (lectin PPA): inhibited the agglutination |
| OC[C@H]1O[C@@H](O[C@H]2[C@H](O)[C@@H](O)[C@@H](O)O[C@@H]2CO)[C@H](O)[C@@H](O)[C@H]1O [α-lactose] | — (The negative sign (−) means that there is no hemagglutination-inhibition for 100 millimolar monosaccharide/disaccharide) | – |
| O=C[C@H](O)[C@@H](O)[C@@H](O)[C@H](O)CO [D-galactose] | — (The negative sign (−) means that there is no hemagglutination-inhibition for 100 millimolar monosaccharide/disaccharide) | – |
| CC(=O)N[C@H]1[C@H]([C@H](O)[C@H](O)CO)OC(O)(C(=O)O)C[C@@H]1O (some centres unmarked) [N-acetylneuraminic acid] | — (The negative sign (−) means that there is no hemagglutination-inhibition for 100 millimolar monosaccharide/disaccharide) | – |
| Bovine submaxillary mucin | – | ELISA response (absorbance at 415 nanometers) [1]: a response in which absorbance value is increased was observed; Erythrocyte agglutination inhibition concentration (lectin PPA; [4]): 1.3 µM; inhibition of agglutination (in words) (lectin PPA): inhibited the agglutination |

From patent US7015313B2, “Lectin protein prepared from Korean marine crab Philyra pisum, process for preparing the same and the use thereof” (priority 2001, dated 2006)
